Test results from patent US12180187B2, “1-phenyl-5-azinylpyrazolyl-3-oxyalkyl acids and their use for controlling unwanted plant growth” (BAYER AKTIENGESELLSCHAFT, priority 2019, dated 2024).

Key:
KCHSC [1] = assay: Pre-emergence action against KCHSC, 1280 g/ha; assay type: in vivo, Bassia scoparia; details: scored visually after about 3 weeks vs untreated controls (100% = plants have died)
Text: 1. Pre-Emergence Herbicidal Effect and Crop Plant Compatibility a) Seeds of mono- and dicotyledonous weed plants are placed in plastic pots in sandy loam soil (doubly sown with one species each of mono- or dicotyledonous weed plants per pot) and covered with soil. The compounds of the invention, formulated in the form of wettable powders (WP) or as emulsion concentrates (EC), are then applied onto the surface of the covering soil as aqueous suspension or emulsion with addition of 0.5% additive at a water application rate equivalent to 600 litres per hectare. After the treatment, the pots are placed in a greenhouse and kept under good growth conditions for the trial plants. After about 3 weeks, the effect of the preparations is scored visually in comparison with untreated controls as percentages. For example, 100% activity=the plants have died, 0% activity=like control plants. 1. Pre-Emergence Effectiveness Tables 1 to 12 below show the effects of selected compounds of the general formula (I) according to Tables 1 and 2 on various harmful plants and at an application rate corresponding to 1280 g/ha, which were obtained by the experimental procedure mentioned above.

ALOMY [2] = assay: Post-emergence action against ALOMY, 1.28 kg/ha; assay type: in vivo, Alopecurus myosuroides; details: dosage 1280 g/ha, visual rating about 3 weeks after treatment vs untreated controls
Method in brief: (§1)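 Percent activity was scored visually ~3 wk post-spray relative to untreated plants. Treatment was post-emergence at the one-leaf stage using WP/EC in water with 0.5% additive (600 L/ha).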

SETVI [3] = assay: Pre-emergence action against SETVI, 1280 g/ha; assay type: in vivo, Setaria viridis; details: visual scoring after about 3 weeks vs untreated controls, 100% = plants have died, 0% = like control plants
Method in brief: (§2)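 Visual percent-effect ratings (0% = like control, 100% = plants dead) were taken about 3 weeks after pre-emergence soil-surface application of WP/EC aqueous formulations with 0.5% additive, 600 L water/ha. Seeds were sown in sandy loam and grown in the greenhouse.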

VERPE [4] = assay: Post-emergence action against VERPE, 1.28 kg/ha; assay type: in vivo, Veronica persica; details: dosage 1280 g/ha, visual rating about 3 weeks after treatment vs untreated controls (100% = plants died)
Method in brief: as §1

MATIN [5] = assay: Post-emergence action against MATIN, 1.28 kg/ha; assay type: in vivo, Tripleurospermum inodorum (Matricaria inodora); details: dosage 1280 g/ha, visual rating about 3 weeks after treatment vs untreated controls (100% = plants died)
Method in brief: as §1

POAAN [6] = assay: Post-emergence action against POAAN, 1.28 kg/ha; assay type: in vivo, Poa annua; details: dosage 1280 g/ha, visual rating about 3 weeks after treatment vs untreated controls
Method in brief: as §1

STEME [7] = assay: Pre-emergence action against STEME, 1280 g/ha; assay type: in vivo, Stellaria media; details: scored visually after about 3 weeks vs untreated controls (100% = plants have died)
Method in brief: as §2

LOLRI [8] = assay: Post-emergence action against LOLRI, 1.28 kg/ha; assay type: in vivo, Lolium rigidum; details: dosage 1280 g/ha, visual rating about 3 weeks after treatment vs untreated controls
Method in brief: as §1

STEME [9] = assay: Post-emergence action against STEME, 1.28 kg/ha; assay type: in vivo, Stellaria media; details: dosage 1280 g/ha, visual rating about 3 weeks after treatment vs untreated controls (100% = plants died)
Method in brief: as §1

AMARE [10] = assay: Post-emergence action against AMARE, 1.28 kg/ha; assay type: in vivo, Amaranthus retroflexus; details: dosage 1280 g/ha, visual rating about 3 weeks after treatment vs untreated controls (100% = plants died)
Method in brief: as §1

MATIN [11] = assay: Pre-emergence action against MATIN, 1280 g/ha; assay type: in vivo, Tripleurospermum inodorum (Matricaria inodora); details: scored visually after about 3 weeks vs untreated controls (100% = plants have died)
Method in brief: as §2

KCHSC [12] = assay: Post-emergence action against KCHSC, 1.28 kg/ha; assay type: in vivo, Bassia scoparia; details: dosage 1280 g/ha, visual rating about 3 weeks after treatment vs untreated controls (100% = plants died)
Method in brief: as §1

POAAN [13] = assay: Pre-emergence action against POAAN, 1280 g/ha; assay type: in vivo, Poa annua; details: visual scoring after about 3 weeks vs untreated controls, 100% = plants have died, 0% = like control plants
Method in brief: as §2

LOLRI [14] = assay: Pre-emergence action against LOLRI, 1280 g/ha; assay type: in vivo, Lolium rigidum; details: visual scoring after about 3 weeks vs untreated controls, 100% = plants have died, 0% = like control plants
Method in brief: as §2

AMARE [15] = assay: Pre-emergence action against AMARE, 1280 g/ha; assay type: in vivo, Amaranthus retroflexus; details: scored visually after about 3 weeks vs untreated controls (100% = plants have died)
Method in brief: as §2

DIGSA [16] = assay: Pre-emergence action against DIGSA, 1280 g/ha; assay type: in vivo, Digitaria sanguinalis; details: visual scoring after about 3 weeks vs untreated controls, 100% = plants have died, 0% = like control plants
Method in brief: as §2

ECHCG [17] = assay: Pre-emergence action against ECHCG, 1280 g/ha; assay type: in vivo, Echinochloa crus-galli; details: visual scoring after about 3 weeks vs untreated controls, 100% = plants have died, 0% = like control plants
Method in brief: as §2

ALOMY [18] = assay: Pre-emergence action against ALOMY, 1280 g/ha; assay type: in vivo, Alopecurus myosuroides; details: visual scoring after about 3 weeks vs untreated controls, 100% = plants have died, 0% = like control plants
Method in brief: as §2

ECHCG [19] = assay: Post-emergence action against ECHCG, 1.28 kg/ha; assay type: in vivo, Echinochloa crus-galli; details: dosage 1280 g/ha, visual rating about 3 weeks after treatment vs untreated controls
Method in brief: as §1

DIGSA [20] = assay: Post-emergence action against DIGSA, 1.28 kg/ha; assay type: in vivo, Digitaria sanguinalis; details: dosage 1280 g/ha, visual rating about 3 weeks after treatment vs untreated controls
Method in brief: as §1

VERPE [21] = assay: Pre-emergence action against VERPE, 1280 g/ha; assay type: in vivo, Veronica persica; details: scored visually after about 3 weeks vs untreated controls (100% = plants have died)
Method in brief: as §2

SETVI [22] = assay: Post-emergence action against SETVI, 1.28 kg/ha; assay type: in vivo, Setaria viridis; details: dosage 1280 g/ha, visual rating about 3 weeks after treatment vs untreated controls
Method in brief: as §1

Compound | Pre-emergence action against KCHSC (KCHSC [1]) [%] | Post-emergence action against ALOMY (ALOMY [2]) [%] | Pre-emergence action against SETVI (SETVI [3]) [%] | Post-emergence action against VERPE (VERPE [4]) [%] | Post-emergence action against MATIN (MATIN [5]) [%] | Post-emergence action against POAAN (POAAN [6]) [%] | Pre-emergence action against STEME (STEME [7]) [%] | Post-emergence action against STEME (STEME [9]) [%] | Post-emergence action against AMARE (AMARE [10]) [%] | Pre-emergence action against MATIN (MATIN [11]) [%] | Post-emergence action against KCHSC (KCHSC [12]) [%] | Pre-emergence action against POAAN (POAAN [13]) [%] | Pre-emergence action against LOLRI (LOLRI [14]) [%] | Pre-emergence action against AMARE (AMARE [15]) [%] | Pre-emergence action against DIGSA (DIGSA [16]) [%] | Pre-emergence action against ECHCG (ECHCG [17]) [%] | Pre-emergence action against ALOMY (ALOMY [18]) [%] | Post-emergence action against ECHCG (ECHCG [19]) [%] | Post-emergence action against DIGSA (DIGSA [20]) [%] | Pre-emergence action against VERPE (VERPE [21]) [%] | also measured
CCOC(=O)COc1nn(-c2ccc(F)cc2)c(-c2ccc(F)nc2)c1C(F)(F)F [VII-059] | 100 | 100 | 100 | 90 | 100 | 100 | 100 | 100 | 100 | 90 | 100 | 100 | 100 | 100 | 100 | 100 | 100 | 100 | 100 | 100 | Post-emergence action against LOLRI (LOLRI [8]): 100%
O=C(O)COc1nn(-c2ccc(F)cc2)c(-c2ccc(F)nc2)c1Br [VII-095] | 100 | 100 | 100 | 90 | 100 | 100 | 100 | 90 | 90 | 90 | 100 | 100 | 100 | 100 | 100 | 100 | 100 | 100 | 100 | 100 | Post-emergence action against LOLRI (LOLRI [8]): 100%; Post-emergence action against SETVI (SETVI [22]): 100%
CC(Oc1nn(-c2ccccc2F)c(-c2ccc(F)nc2)c1Br)C(=O)O (stereo not shown) [VII-096] | 100 | 100 | 100 | 90 | 90 | 100 | 100 | 100 | 100 | 100 | 90 | 100 | 100 | 100 | 100 | 100 | 100 | 90 | 100 | 100 | Post-emergence action against SETVI (SETVI [22]): 90%
